Source: ChEMBL document CHEMBL1201862, “PubChem BioAssay data set” (2004)
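Briefly, cells in 96-well plates were exposed to five compound concentrations for 48 h, and endpoints were estimated by linear interpolation. At the GI50, growth is halved.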 The source made the active and inactive calls. Rule as the data show it: active = GI50 up to about 1.1 µM and inactive = higher.

Key:
Experiment in all cases: NCI tumour cell line growth inhibition, 48 h
[1] = tested on: HCC 2998
[2] = tested on: 786-0
[3] = tested on: NCI-H23
[4] = tested on: CAKI-1
[5] = tested on: SK-MEL-2
[6] = tested on: SK-MEL-28
[7] = tested on: T47D
[8] = tested on: Malme-3M
[9] = tested on: HCT-116
[10] = tested on: RXF 393
[11] = tested on: HOP-92
[12] = tested on: OVCAR-3
[13] = tested on: BT-549
[14] = tested on: A549
[15] = tested on: SNB-19
[16] = tested on: NCI-H226
[17] = tested on: MOLT-4
[18] = tested on: SK-MEL-5
[19] = tested on: SF-539
[20] = tested on: MDA-N

| Compound | GI50 [1] | GI50 [2] | GI50 [3] | GI50 [4] | GI50 [5] | GI50 [6] | GI50 [7] | GI50 [8] | GI50 [9] | GI50 [10] | GI50 [11] | GI50 [12] | GI50 [13] | GI50 [14] | GI50 [15] | GI50 [16] | GI50 [17] | GI50 [18] | GI50 [19] | GI50 [20] |
| --- | --- | --- | --- | --- | --- | --- | --- | --- | --- | --- | --- | --- | --- | --- | --- | --- | --- | --- | --- | --- |
| CSC1=C(c2ccc(Cl)cc2)SC(N2CCCCC2)N1c1ccc([N+](=O)[O-])cc1 (stereo not given) | 41.9 µM (inactive) | 31.6 µM (inactive) | 23 µM (inactive) | 44.8 µM (inactive) | 20.5 µM (inactive) | 38.8 µM (inactive) | 23.9 µM (inactive) | 45.2 µM (inactive) | 23 µM (inactive) | > 100 µM (inactive) | 26.7 µM (inactive) | 21.8 µM (inactive) | 27.3 µM (inactive) | 29.2 µM (inactive) | 28.8 µM (inactive) | 76.9 µM (inactive) | 26 µM (inactive) | 14.6 µM (inactive) | 21.3 µM (inactive) | 39.4 µM (inactive) |
| Nc1cccc2nsnc12 | > 84.3 µM (inactive) | > 100 µM (inactive) | > 100 µM (inactive) | 74.3 µM (inactive) | > 100 µM (inactive) | > 100 µM (inactive) | 49.1 µM (inactive) | > 100 µM (inactive) | > 100 µM (inactive) | > 100 µM (inactive) | > 100 µM (inactive) | > 94.8 µM (inactive) | > 100 µM (inactive) | > 100 µM (inactive) | > 100 µM (inactive) | > 100 µM (inactive) | 12.9 µM (inactive) | 36.3 µM (inactive) | > 100 µM (inactive) | 49.8 µM (inactive) |
| Nc1nc(O)c2[nH]nnc2n1 [8-AZAGUANINE] | 19.2 µM (inactive) | 0.292 µM (active) | 25.1 µM (inactive) | 0.304 µM (active) | 0.074 µM (active) | 0.728 µM (active) | 3.44 µM (inactive) | 0.352 µM (active) | 0.881 µM (active) | 0.143 µM (active) | 0.757 µM (active) | 16 µM (inactive) | 0.473 µM (active) | 33 µM (inactive) | 42.7 µM (inactive) | 0.789 µM (active) | 0.272 µM (active) | 0.748 µM (active) | 0.361 µM (active) | 0.308 µM (active) |
| COc1ccc(/C=C/C(=O)c2cc(C(C)(C)C)c(O)c(C(C)(C)C)c2)cc1OC | 2.27 µM (inactive) | 8.67 µM (inactive) | 12.1 µM (inactive) | 10.7 µM (inactive) | 3.48 µM (inactive) | 37.5 µM (inactive) | 3.29 µM (inactive) | 61.2 µM (inactive) | 4.25 µM (inactive) | 2.86 µM (inactive) | 16.6 µM (inactive) | 4.97 µM (inactive) | 5.24 µM (inactive) | 8.59 µM (inactive) | 24.8 µM (inactive) | 10.7 µM (inactive) | 2.77 µM (inactive) | 6.75 µM (inactive) | 12.7 µM (inactive) | 2.94 µM (inactive) |
| O=C(/C=C/c1ccc(O)c(O)c1)NC(CO)C(=O)O (stereo not given) | > 100 µM (inactive) | > 100 µM (inactive) | > 100 µM (inactive) | > 100 µM (inactive) | > 100 µM (inactive) | > 100 µM (inactive) | > 100 µM (inactive) | > 100 µM (inactive) | > 100 µM (inactive) | > 100 µM (inactive) | 3.72 µM (inactive) | > 100 µM (inactive) | > 100 µM (inactive) | > 100 µM (inactive) | > 100 µM (inactive) | > 100 µM (inactive) | > 100 µM (inactive) | > 100 µM (inactive) | > 100 µM (inactive) | > 100 µM (inactive) |
| c1ccc(CSCCc2ccncc2)cc1 | > 100 µM (inactive) | > 100 µM (inactive) | > 100 µM (inactive) | < 0.01 µM (active) | 41.5 µM (inactive) | > 100 µM (inactive) | 90.6 µM (inactive) | > 100 µM (inactive) | > 100 µM (inactive) | > 100 µM (inactive) | 15.2 µM (inactive) | > 100 µM (inactive) | > 100 µM (inactive) | > 100 µM (inactive) | > 100 µM (inactive) | > 100 µM (inactive) | > 100 µM (inactive) | > 100 µM (inactive) | > 100 µM (inactive) | > 100 µM (inactive) |
| Cc1ccc(S(=O)(=O)Nc2cc(O)nc3c2CCC3)cc1 | > 100 µM (inactive) | > 100 µM (inactive) | > 100 µM (inactive) | > 100 µM (inactive) | > 100 µM (inactive) | > 100 µM (inactive) | > 100 µM (inactive) | > 100 µM (inactive) | > 100 µM (inactive) | > 100 µM (inactive) | > 100 µM (inactive) | > 100 µM (inactive) | > 100 µM (inactive) | > 100 µM (inactive) | > 100 µM (inactive) | > 100 µM (inactive) | 42.9 µM (inactive) | 73.5 µM (inactive) | > 100 µM (inactive) | > 100 µM (inactive) |
